Reference: patent publication US10189860B2, “Hydrates of dolutegravir sodium” (LEK PHARMACEUTICALS D.D., priority 2014, dated 2019)
“And” between values parts separate entries of the source, which are not always exact repeats. Equal entries are not always repeated. “Also recorded” adds a separate entry of the source.

What was measured:
[1] = Gravimetric moisture sorption/desorption (GMSD) experiments; assay type: physicochemical; settings: 25±0.1° C.
Procedure: Comparative gravimetric moisture sorption/desorption experiments at 25±0.1° C. were conducted with dolutegravir sodium monohydrate of WO 2010/068253 A1 and the hydrates of the present invention designated form HxA and form Hy1B.
The water values at varying relative humidities were obtained by recording moisture sorption/desorption isotherms with a SPS-11 moisture sorption analyzer (MD Messtechnik, Ulm, D). The samples were weighed into Teflon sample holders. […] The equilibrium condition for each step was set to a mass constancy of ±0.005% over 60 min. The temperature was 25±0.1° C. The water content of the samples was determined after the moisture sorption/desorption experiments with a TGA 7 system (Perkin Elmer, Norwalk, Conn., USA) using the Pyris 2.0 software. The samples were weighed into Al pans (50 μL). Dry nitrogen was used as purge gas (purge rate: 20 mL/min). The samples were heated from 25 to 200° C. using a heating rate of 10° C./min.

[2] = Compressibility testing of API (bulk/tapped volume, compressibility index); assay type: physicochemical; settings: API batches; for Compressibility index: (Vb−Vt)/Vb; for Flow character according to PhEur: PhEur Chapter 2.9.36 Powder flow
Procedure: As described in Example 8 herein above, the sodium salt of dolutegravir was prepared in two polymorphic forms (Form I and form HxA). […] Compressibilty index is an indirect measure of different powder properties such as size, shape, surface area, cohesiveness etc. (PhEur). Bulk (Vb) and tapped (Vt) volume were measured for several batches of both forms and the compressibilty index (%) is determined based on Vb and Vt. 250 mL volumetric cylinder with test samples weight approximately 25 g were used. The compressibility index was calculated according to formula ((Vb−Vt)/Vb).

[3] = Particle morphology by scanning electron micrograph; assay type: physicochemical; settings: SEM
Excerpt: A figure of the morphology of Form I and form HxA is depicted in FIG. 13 (Form I) and 14 (form HxA), at different magnifications (500× magnification (Form I), 1.500× magnification (Form I and form HxA), and 5.000× magnification (form HxA)).

[4] = API particle size by laser diffraction
[5] = listed as dolutegravir sodium monohydrate of WO 2010/068253 A1
[6] = 95% RH, listed as dolutegravir sodium monohydrate of WO 2010/068253 A1

Row | SMILES | Remarks: hysteresis between sorption and desorption isotherms [1] | Δm sorption [0-90% RH] [1] | Δm sorption [30-90% RH] [1] | Bulk volume [2] | Tapped volume [2] | Compressibility index [2] | Flow character according to PhEur [2] | morphology of particles [3] | d0.1 [4] [μm] | d0.5 [4] [μm] | d0.9 [4] [μm] | Remarks: stable at / preserves crystal structure (RH range) [1] | also measured
1 | C[C@@H]1CCO[C@H]2Cn3cc(C(=O)NCc4ccc(F)cc4F)c(=O)c([O-])c3C(=O)N12.[Na+] [Form Hy1B, sodium (4R,12aS)-9-((2,4-difluorobenzyl)carbamoyl)-4-methyl-6,8-dioxo-3,4,6,8,12,12a-hexahydro-2H-pyrido[1′,2′:4,5]pyrazino[2,1-b][1,3]oxazin-7-olate] | absence of a significant hysteresis; also recorded: no significant hysterises | +4.8% | +2.4% | – | – | – | – | – | – | – | – | – | hygroscopicity [1]: significantly less hygroscopic than the monohydrate of WO 2010/068253 A1; mol of water per mol of dolutegravir sodium ([1]; 90% RH): 1.3 mol of water per mol of dolutegravir sodium
2 | C[C@@H]1CCO[C@H]2Cn3cc(C(=O)NCc4ccc(F)cc4F)c(=O)c([O-])c3C(=O)N12.[Na+] [Form I, reference compound] | – | – | – | 5.55 mL/g and 7.00 mL/g and 4.89 mL/g | 3.79 mL/g and 4.56 mL/g and 3.23 mL/g | 32% and 35% and 34% | Very poor | long needle like crystals | 3.5 | 10 | 40 | – | needle lengths [3]: ≤ 70 μm
3 | C[C@@H]1CCO[C@H]2Cn3cc(C(=O)NCc4ccc(F)cc4F)c(=O)c([O-])c3C(=O)N12.[Na+] [Form HxA, sodium (4R,12aS)-9-((2,4-difluorobenzyl)carbamoyl)-4-methyl-6,8-dioxo-3,4,6,8,12,12a-hexahydro-2H-pyrido[1′,2′:4,5]pyrazino[2,1-b][1,3]oxazin-7-olate] | no significant hysterises | +3.4% | +2.5% | 4.02 mL/g and 2.88 mL/g and 3.30 mL/g and 2.89 mL/g | 2.86 mL/g and 2.14 mL/g and 2.60 mL/g and 2.25 mL/g | 29% and 26% and 21% and 22% | Poor and Passable | thin-plate like morphology | 1.3 | 3.1 | 7.4 | stable at 0-95% RH | Compressibility index ([2]; listed as HxA form): 22-29%; Flow character according to PhEur ([2]; listed as HxA form): “poor” to “passable”; particle sizes (primary particles) [3]: about 5 μm; morphology of particles ([3]; listed as HxA form): thin-plate like morphology; Remarks: structural changes [1]: no structural changes observed; Remarks: hysteresis between sorption and desorption isotherms ([1]; listed as form HxA): absence of a hysteresis; hygroscopicity ([1]; listed as form HxA): significantly less hygroscopic than the monohydrate of WO 2010/068253 A1; maximum water content ([1]; 95% RH): about 3.8%; mol of water per mol of dolutegravir sodium ([1]; 95% RH): 0.9 mol of water per mol of dolutegravir sodium; maximum water content ([1]; 95% RH, listed as form HxA): 3.9%; mol of water per mol of dolutegravir sodium ([1]; about 30% RH): 0.2 mol of water per mol of dolutegravir sodium; water content ([1]; about 30% RH): about 0.9%; mol of water per mol of dolutegravir sodium ([1]; about 70% RH): 0.7 mol of water per mol of dolutegravir sodium; Particle size ([4]; achieved with crystallization only): below 10 μm
4 | C[C@@H]1CCO[C@H]2Cn3cc(C(=O)NCc4ccc(F)cc4F)c(=O)c([O-])c3C(=O)N12.[Na+] [MH of WO 2010/068253, reference compound] | – | +14.0% | +10.7% | – | – | – | – | – | – | – | – | stable at 30-60% RH, | Remarks: dehydration below [1]: dehydration below 30% RH,; Remarks: hysteresis at (RH range) [1]: hysterises at 40-95% RH; Remarks: dehydration below [1, 5]: Below 30 % RH; hygroscopicity [1, 5]: very hygroscopic; maximum water content [1, 6]: about 21.8%; mol of water per mol of dolutegravir sodium [1, 6]: 5.6 mol of water per mol of dolutegravir sodium
